Laboratory results as given in publication PMC3214078 (PLoS ONE, 2011).
Where a chain is given by its changes, count along the chain named. Where no end group is shown, it is not given here.

How the values were obtained:
Assay type in all cases: binding
huUHRF1-PHD296–367 D334A = molecular target: T1, huUHRF1-PHD296–367 D334A (Homo sapiens, UniProt Q96T88, D334A); test: ITC, D334A mutant; settings: 20°C, 20 mM Tris pH 7, 150 mM NaCl, 0.5 mM TCEP, 25 µM ZnCl2, at least in duplicates
T1 construct: Characterization of key residues for the recognition of the histone H3 tail by huUHRF1-PHD296–367; (His)6-GST (N, cleaved yes); made in house; host or cells: Escherichia coli Rosetta 2
T1 sequence (Q96T88 296-367 D334A): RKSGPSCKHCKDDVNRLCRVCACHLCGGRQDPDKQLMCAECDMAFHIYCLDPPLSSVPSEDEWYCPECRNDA
Experimental: (§1) Measurements were carried out at 20°C on an ITC200 Microcal calorimeter (MicroCal). Histone peptides (1–12Y, 1.5–2 mM) were injected to a sample of either wild-type or mutant huUHRF1-PHD (0.12–0.18 mM) in a reaction buffer containing 20 mM Tris pH 7, 150 mM NaCl, 0.5 mM TCEP, 25 µM ZnCl2 and 0.1 mM PMSF. A typical titration consisted of 19 injections of 2 µl of peptide into 203 µl of the protein solution at time intervals of 150–300 s. Control experiments were performed under identical conditions to determine the dilution heat of the titrant peptide into buffer. Data were analyzed using the software ORIGIN 5.0 (OriginLab Corporation) and all the measurements were performed, at least, in duplicates.

huUHRF1-PHD296–367 D337A = molecular target: T2, huUHRF1-PHD296–367 D337A (Homo sapiens, UniProt Q96T88, D337A); test: ITC, D337A mutant; settings: 20°C, 20 mM Tris pH 7, 150 mM NaCl, 0.5 mM TCEP, 25 µM ZnCl2, at least in duplicates
T2 construct: Characterization of key residues for the recognition of the histone H3 tail by huUHRF1-PHD296–367; (His)6-GST (N, cleaved yes); made in house; host or cells: Escherichia coli Rosetta 2
T2 sequence (Q96T88 296-367 D337A): T1 sequence (Q96T88 296-367 D334A) with A39D, D42A
Experimental: as §1

huUHRF1-PHD296–367 = molecular target: T3, huUHRF1-PHD296–367 (Homo sapiens, UniProt Q96T88); test: ITC, wild-type huUHRF1-PHD296–367 with histone H3 peptides; settings: 20°C, 20 mM Tris pH 7, 150 mM NaCl, 0.5 mM TCEP, 25 µM ZnCl2, 0.1 mM PMSF, peptide 1.5–2 mM into protein 0.12–0.18 mM, at least in duplicates
T3 construct: (His)6-GST (N, cleaved yes); made in house; host or cells: Escherichia coli Rosetta 2
T3 sequence (Q96T88 296-367): T1 sequence (Q96T88 296-367 D334A) with A39D
Experimental: as §1, with “Histone peptides (1–12Y, 1.5–2 mM) were injected to a sample of either wild-type or mutant huUHRF1-PHD (0.12–0.18 mM) in a reaction buffer containing 20 mM Tris pH 7, 150 mM NaCl, 0.5 mM TCEP, 25 µM ZnCl2 and 0.1 mM PMSF.” left out

Row | Kd (huUHRF1-PHD296–367 D334A) | Kd (huUHRF1-PHD296–367 D337A) | Kd (huUHRF1-PHD296–367) | Compound
1 | > 500 µM | 68 ± 8 µM | – | C[C@H](N)C(=O)N[C@@H](CCCNC(=N)N)C(=O)N[C@H](C(=O)N[C@@H](CCCCN)C(=O)N[C@@H](CCC(N)=O)C(=O)N[C@H](C(=O)N[C@@H](C)C(=O)N[C@@H](CCCNC(=N)N)C(=O)N[C@@H](CCCCN)C(=O)N[C@@H](CO)C(=O)N[C@H](C(=O)NCC(=O)N[C@@H](Cc1ccc(O)cc1)C(=O)O)[C@@H](C)O)[C@@H](C)O)[C@@H](C)O [H3 (1-12Y)]
2 | – | – | 7.9 µM | C[C@H](N)C(=O)N[C@@H](CCCNC(=N)N)C(=O)N[C@H](C(=O)N[C@@H](CCCCN)C(=O)N[C@@H](CCC(N)=O)C(=O)N[C@H](C(=O)N[C@@H](C)C(=O)N[C@@H](CCCNC(=N)N)C(=O)N[C@@H](CCCCN)C(=O)N[C@@H](CO)C(=O)N[C@H](C(=O)NCC(=O)N[C@@H](Cc1ccc(O)cc1)C(=O)O)[C@@H](C)O)[C@@H](C)O)[C@@H](C)O [unmodified H3]
3 | – | – | 16.6 ± 0.9 µM | ARTAQTARKSTGY [H3K4A (1-12Y)]
